Measurements from patent US12667572B2, “Tricyclic compounds useful in the treatment of cancer, autoimmune and inflammatory disorders” (SCHRÖDINGER, INC., priority 2021, dated 2026).
Where two headings read alike, the source gives them in different places.

Columns and labels:
[1] = system: IL10 secretion in OCI-LY10 cells; assay: Human IL10 secretion assay, Assay 2 (MSD); type: cell-based; conditions: 24 h incubation, Meso Scale Discovery, read-out: IL-10 Secretion IC50 [nM] Assay 2
Method: IL10 is one of the cytokines that are regulated via activation of NF-kB signaling. For example, in ABC-DLBCL cell lines, the activated NF-kB signaling leads to increased IL10 secretion. Inhibition of NF-kB signaling has been shown leading to decreased IL10 secretion.
Assay 2: OCI-LY10 cells were seeded in IMEM supplemented with 20% fetal bovine serum at 4.8×10^5 cells per 160 μL per well in 96-well V-bottom cell culture plates (corning, 3894), treated with 120 nL of 3-fold serial compound dilutions, starting at 4 mM. The final vehicle concentration was 0.075% DMSO in all wells. After a 24 h incubation, human IL-10 precoated plates (Meso Scale Discovery) were washed 3 times with PBST, and 50 μL culture medium was aspirated into the MSD plate and incubated at 4° C. overnight. The supernatant was then discarded, and the wells were washed 3 times with PB ST. SULFO-TAG Anti-human IL-10 Antibody (50×) was diluted 50-fold according to the Meso Scale Protocol, then 25 μL of SULFO-TAG Anti-human IL-10 Antibody (1×) was added. After 2 h of incubation at RT, the supernatant was discarded, and the well was washed 3 times with PBST. 2×read buffer was added and the signal was read on an MSD Sector S600. The effect of a particular compound on IL10 secretion is shown relative to the effect of DMSO; set as 100%. IC50 values (nM) were determined using 4-parametric curve-fitting.

[2] = target: T1, full-length MALT1 protein His-MALT1(1-824) (Homo sapiens, UniProt Q9UDY8); assay: MALT1 protease assay, Assay 2 (1 nM MALT1, Ac-LRSR-AMC substrate); type: biochemical; conditions: 1 nM MALT1, 50 μM Ac-LRSR-AMC, 2 h pre-incubation, 8 hr incubation at RT
T1 construct: full-length MALT1 protein His-MALT1(1-824); His (N); made in house; host or cells: baculovirus-infected insect cells
T1 sequence (Q9UDY8 1-824): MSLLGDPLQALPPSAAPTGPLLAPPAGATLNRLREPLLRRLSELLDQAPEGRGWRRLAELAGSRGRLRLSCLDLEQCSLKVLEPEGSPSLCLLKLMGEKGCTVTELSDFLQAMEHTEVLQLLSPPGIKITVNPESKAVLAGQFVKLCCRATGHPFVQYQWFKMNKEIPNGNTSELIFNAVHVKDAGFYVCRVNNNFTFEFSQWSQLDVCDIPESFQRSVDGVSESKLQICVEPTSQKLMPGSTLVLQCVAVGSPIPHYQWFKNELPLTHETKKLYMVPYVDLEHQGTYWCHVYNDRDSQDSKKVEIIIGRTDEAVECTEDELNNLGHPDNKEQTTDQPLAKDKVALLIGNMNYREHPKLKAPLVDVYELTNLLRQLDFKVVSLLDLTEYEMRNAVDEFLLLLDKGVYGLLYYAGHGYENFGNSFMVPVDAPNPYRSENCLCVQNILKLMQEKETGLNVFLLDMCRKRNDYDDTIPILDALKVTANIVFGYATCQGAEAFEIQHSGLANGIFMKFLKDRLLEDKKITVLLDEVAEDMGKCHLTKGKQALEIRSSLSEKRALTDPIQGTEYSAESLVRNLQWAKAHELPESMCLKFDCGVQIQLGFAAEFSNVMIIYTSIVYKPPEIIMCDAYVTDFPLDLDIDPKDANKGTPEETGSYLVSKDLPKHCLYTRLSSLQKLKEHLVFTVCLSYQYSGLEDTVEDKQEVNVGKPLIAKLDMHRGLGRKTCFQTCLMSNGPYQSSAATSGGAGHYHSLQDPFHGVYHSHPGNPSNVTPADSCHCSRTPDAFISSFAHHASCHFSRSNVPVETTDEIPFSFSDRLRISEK
Method in brief: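 Compounds (0.1% DMSO final) sat 2 h at RT with insect-cell-expressed His-MALT1(1-824), in 50 mM Tris pH 7.5, 600 mM sodium citrate, 1 mM DTT, 1 mM EDTA, 0.05% BSA. Cleavage of 50 μM Ac-LRSR-AMC (Km ~100 μM) ran 8 h at RT, read as AMC fluorescence. IC50 and Hill coefficient fitted to % remaining activity.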

[3] = target: T1, full-length MALT1 protein His-MALT1(1-824); assay: MALT1 protease assay, Assay 1 (2 nM MALT1, Ac-LRSR-AMC substrate); type: biochemical; conditions: 2 nM MALT1, 50 μM Ac-LRSR-AMC, 2 h pre-incubation, 8 hr incubation at RT
Method: MALT1 protease activity was assessed in an in vitro assay using a tetrapeptide as substrate and full-length MALT1 protein His-MALT1(1-824) purified from baculovirus-infected insect cells. The tetrapeptide substrate is Ac-LRSR-AMC (SM Biochemicals) with Km measured at around 100 μM.
The final assay buffer includes 1 nM (Assay 2) or 2 nM (Assay 1) of MALT1 full-length protein, 50 μM Ac-LRSR-AMC substrate, 50 mM Tris pH 7.5, 600 mM Sodium Citrate, 1 mM DTT, 1 mM EDTA, and 0.05% BSA in 384-well plate format using black microtiter square well plates (Optiplate 384-F, Perkin Elmer).
Test compounds were dissolved in 100% DMSO at stock of 10 mM, with final DMSO concentration 0.1%. Test compounds were pre-incubated with MALT1 protein for 2 h at room temperature. Substrate was added after the pre-incubation and fluorescence signal was measured using Envision at excitation 355 nm and emission 460 nm after 8 hr incubation at RT. Increase in the assay signal was linear over this period and proportional with increase in the enzyme content.
The fluorescence units were transformed to percentage of remaining activity by using the high control (HC, median of fluorescence signal from wells containing MALT1 protein, substrate, and DMSO) and low control (LC, median of fluorescence signal from wells with substrate only) with the formula below: […]
IC50 and Hill coefficients were obtained using Graph Pad Prism (Graph Pad software, Inc, USA) with non-linear regression analysis.

SMILES	IC50 ([1]; Homo sapiens) [nM]	IC50 [2] [nM]	IC50 [1] [nM]	IC50 [3] [nM]
C[C@@]1(C(F)(F)F)C[C@H](C(=O)Nc2cnc(-n3nccn3)c(C(F)(F)F)c2)c2cnc3cc(Cl)nn3c21 (single isomer, unassigned) [Example 54, N-(6-(2H-1,2,3-triazol-2-yl)-5˜(trifluoromethyl)pyridin-3-yl)-2-chloro-8-methyl-8-(trifluoromethyl)-7,8-dihydro-6H-cyclopenta[e]pyrazolo[1,5-a]pyrimidine-6-carboxamide]	100 to 1000	< 10	–	–
C[C@@]1(C(F)(F)F)C[C@H](C(=O)Nc2cnc(-n3nccn3)c(C(F)(F)F)c2)c2cnc3cc(Cl)nn3c21 (single isomer, unassigned) [Example 56, N-(6-(2H-1,2,3-triazol-2-yl)-5˜(trifluoromethyl)pyridin-3-yl)-2-chloro-8-methyl-8-(trifluoromethyl)-7,8-dihydro-6H-cyclopenta[e]pyrazolo[1,5-a]pyrimidine-6-carboxamide]	–	< 10	100 to 1000	–
C[C@@]1(C(F)(F)F)C[C@H](C(=O)Nc2cnc(-n3nccn3)c(C(F)F)c2)c2cnc3cc(Cl)nn3c21 (single isomer, unassigned) [Example 64, 2-chloro-N-(5-(difluoromethyl)-6-(2H-1,2,3-triazol-2-yl)pyridin-3-yl)-8-methyl-8-(trifluoromethyl)-7,8-dihydro-6H-cyclopenta[e]pyrazolo[1,5-a]pyrimidine-6-carboxamide]	100 to 1000	10 to 100	–	–
C[C@]1(C(F)(F)F)C[C@H](C(=O)Nc2cnc(-n3nccn3)c(C(F)F)c2)c2cnc3cc(Cl)nn3c21 (single isomer, unassigned) [Example 66, 2-chloro-N-(5-(difluoromethyl)-6-(2H-1,2,3-triazol-2-yl)pyridin-3-yl)-8-methyl-8-(trifluoromethyl)-7,8-dihydro-6H-cyclopenta[e]pyrazolo[1,5-a]pyrimidine-6-carboxamide]	100 to 1000	10 to 100	–	–
CC1(C)CC(C(=O)Nc2cnc(OC(F)F)c(Cl)c2)c2cnc3cc(Cl)nn3c21 (single isomer, unassigned) [Example 68, 2-chloro-N-(5-chloro-6-(difluoromethoxy)pyridin-3-yl)-8,8-dimethyl-7,8-dihydro-6H-cyclopenta[e]pyrazolo[1,5-a]pyrimidine-6-carboxamide]	100 to 1000	< 10	–	–
CN(C(=O)c1ncc(NC(=O)[C@H]2CC(C)(C)c3c2cnc2cc(Cl)nn32)cc1C(F)F)C1CC1 (single isomer, unassigned) [Example 73, 2-chloro-N-(6-(cyclopropyl(methyl)carbamoyl)-5-(difluoromethyl)pyridin-3-yl)-8,8-dimethyl-7,8-dihydro-6H-cyclopenta[e]pyrazolo[1,5-a]pyrimidine-6-carboxamide]	10 to 100	< 10	–	–
CC1(C)CC(C(=O)Nc2cnc(OC3CC3)c(Cl)c2)c2cnc3cc(Cl)nn3c21 (single isomer, unassigned) [Example 75, 2-chloro-N-(5-chloro-6-cyclopropoxypyridin-3-yl)-8,8-dimethyl-7,8-dihydro-6H-cyclopenta[e]pyrazolo[1,5-a]pyrimidine-6-carboxamide]	100 to 1000	10 to 100	–	–
CC1(C)CC(C(=O)Nc2cnc(-n3nccn3)c(Cl)c2)c2cnc3cc(C(F)(F)F)nn3c21 (stereo not shown) [Example 40, N-(5-chloro-6-(2H-1,2,3-triazol-2-yl)pyridin-3-yl)-8,8-dimethyl-2-(trifluoromethyl)-7,8-dihydro-6H-cyclopenta[e]pyrazolo[1,5-a]pyrimidine-6-carboxamide]	–	–	–	10 to 100
CC1(C)CC(C(=O)Nc2cnc(-n3nccn3)c(Cl)c2)c2ccc3cc(O)nn3c21 (stereo not shown) [Example 41, N-(5-chloro-6-(2H-1,2,3-triazol-2-yl)pyridin-3-yl)-2-hydroxy-8,8-dimethyl-7,8-dihydro-6H-cyclopenta[e]pyrazolo[1,5-a]pyridine-6-carboxamide]	–	–	–	100 to 1000
Cn1nc(-c2ncc(NC(=O)C3CC(C)(C)c4c3cnc3cc(Cl)nn43)cc2Cl)cc1O (stereo not shown) [Example 42, 2-chloro-N-(5-chloro-6-(5-hydroxy-1-methyl-1H-pyrazol-3-yl)pyridin-3-yl)-8,8-dimethyl-7,8-dihydro-6H-cyclopenta[e]pyrazolo[1,5-a]pyrimidine-6-carboxamide]	–	–	–	≥ 1000

Now from value to compound:

IC50 ([1]; Homo sapiens) [nM]	IC50 [2] [nM]	IC50 [1] [nM]	IC50 [3] [nM]	SMILES
100 to 1000	< 10	–	–	CC1(C)C[C@H](C(=O)Nc2cnc(-n3nccn3)c(C(F)(F)F)c2)c2cnc3cc(Cl)nn3c21 (single isomer, unassigned) [Example 44, N-(6-(2H-1,2,3-triazol-2-yl)-5˜(trifluoromethyl)pyridin-3-yl)-2-chloro-8,8-dimethyl-7,8-dihydro-6H-cyclopenta[e]pyrazolo[1,5-a]pyrimidine-6-carboxamide]
100 to 1000	< 10	–	–	CC1(C)CC(C(=O)Nc2cnc(-n3nccn3)c(C(F)F)c2)c2cnc3cc(Cl)nn3c21 (single isomer, unassigned) [Example 47, 2-chloro-N-(5-(difluoromethyl)-6-(2H-1,2,3-triazol-2-yl)pyridin-3-yl)-8,8-dimethyl-7,8-dihydro-6H-cyclopenta[e]pyrazolo[1,5-a]pyrimidine-6-carboxamide]
100 to 1000	< 10	–	–	C[C@H](O)c1cnn(-c2ncc(NC(=O)[C@H]3CC(C)(C)c4c3cnc3cc(Cl)nn43)cc2Cl)n1 (single isomer, unassigned) [Example 49, 2-chloro-N-(5-chloro-6-(4-(1-hydroxyethyl)-2H-1,2,3-triazol-2-yl)pyridin-3-yl)-8,8-dimethyl-7,8-dihydro-6H-cyclopenta[e]pyrazolo[1,5-a]pyrimidine-6-carboxamide]
100 to 1000	< 10	–	–	C[C@@H](O)c1cnn(-c2ncc(NC(=O)[C@H]3CC(C)(C)c4c3cnc3cc(Cl)nn43)cc2Cl)n1 (single isomer, unassigned) [Example 51, 2-chloro-N-(5-chloro-6-(4-(1-hydroxyethyl)-2H-1,2,3-triazol-2-yl)pyridin-3-yl)-8,8-dimethyl-7,8-dihydro-6H-cyclopenta[e]pyrazolo[1,5-a]pyrimidine-6-carboxamide]
